# Results published in ChEMBL document CHEMBL1201862, “PubChem BioAssay data set” (2004).
# Calls of active or inactive are those of the source.
# Legend:
# [1] = molecular target: Beta-2 adrenergic receptor (Homo sapiens, UniProt P07550); test: ADRB2 activation measured by internalization – cell-based, FAP fluorogen, flow cytometry, cherry pick 1, dose response (AID 588763); assay type: functional
# [2] = viability of uninfected HEp-2 cells – cell-based, HTS, cytotoxicity control for RSV inhibitor project, dose response (AID 2410); assay type: functional; settings: human respiratory syncytial virus
# Caspase-3 = molecular target: T1, Caspase-3 (Homo sapiens, UniProt P42574); assay type: functional;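 note: Dose-response selectivity test against caspase-3 for candidate inhibitors of sentrin-specific proteases (SENPs)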
# T1 sequence (P42574 whole entry): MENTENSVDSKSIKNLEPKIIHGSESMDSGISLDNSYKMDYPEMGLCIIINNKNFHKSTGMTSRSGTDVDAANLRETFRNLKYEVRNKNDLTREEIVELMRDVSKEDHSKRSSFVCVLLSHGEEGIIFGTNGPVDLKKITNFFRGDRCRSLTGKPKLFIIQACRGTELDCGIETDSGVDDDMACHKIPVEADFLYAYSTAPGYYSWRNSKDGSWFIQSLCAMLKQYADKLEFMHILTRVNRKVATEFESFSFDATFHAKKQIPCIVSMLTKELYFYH
# [3] = molecular target: T2, Sentrin-specific protease 7 (Homo sapiens, UniProt Q9BQF6); assay type: functional;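 note: Luminescence-based dose-response confirmation of ultra-high-throughput screening hits, measuring inhibition of SENP7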
# T2 sequence (Q9BQF6 whole entry): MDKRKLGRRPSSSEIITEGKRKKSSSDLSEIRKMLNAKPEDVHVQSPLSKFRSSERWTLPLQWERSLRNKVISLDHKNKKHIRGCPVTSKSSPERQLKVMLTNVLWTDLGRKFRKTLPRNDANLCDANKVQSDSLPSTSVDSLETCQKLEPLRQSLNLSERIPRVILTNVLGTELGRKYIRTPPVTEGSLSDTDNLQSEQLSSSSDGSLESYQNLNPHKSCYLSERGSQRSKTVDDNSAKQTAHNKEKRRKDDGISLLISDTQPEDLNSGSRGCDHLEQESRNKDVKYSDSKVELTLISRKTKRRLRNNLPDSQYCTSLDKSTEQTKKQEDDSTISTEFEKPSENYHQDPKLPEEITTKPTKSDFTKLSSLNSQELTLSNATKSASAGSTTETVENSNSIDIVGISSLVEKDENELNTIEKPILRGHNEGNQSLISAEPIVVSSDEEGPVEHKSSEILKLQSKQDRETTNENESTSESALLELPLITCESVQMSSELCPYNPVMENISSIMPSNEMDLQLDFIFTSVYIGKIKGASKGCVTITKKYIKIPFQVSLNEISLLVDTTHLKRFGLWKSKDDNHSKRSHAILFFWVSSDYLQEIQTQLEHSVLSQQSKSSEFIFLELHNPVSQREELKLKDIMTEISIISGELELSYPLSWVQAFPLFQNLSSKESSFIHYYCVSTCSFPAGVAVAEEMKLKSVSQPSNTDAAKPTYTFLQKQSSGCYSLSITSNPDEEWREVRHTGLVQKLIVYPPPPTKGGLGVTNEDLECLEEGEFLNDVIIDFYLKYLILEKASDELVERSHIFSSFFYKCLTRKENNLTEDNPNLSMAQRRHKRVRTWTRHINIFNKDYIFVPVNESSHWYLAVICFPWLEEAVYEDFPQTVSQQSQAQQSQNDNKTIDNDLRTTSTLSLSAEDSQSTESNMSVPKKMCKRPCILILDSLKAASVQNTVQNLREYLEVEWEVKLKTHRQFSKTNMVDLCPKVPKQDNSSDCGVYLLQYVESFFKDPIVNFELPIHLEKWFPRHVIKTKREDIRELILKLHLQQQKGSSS
# [4] = molecular target: T3, Sentrin-specific protease 6 (Homo sapiens, UniProt Q9GZR1); assay type: functional;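 note: Luminescence-based dose-response confirmatory assay of SENP6 inhibition, following up an ultra-high-throughput screen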
# T3 sequence (Q9GZR1 whole entry): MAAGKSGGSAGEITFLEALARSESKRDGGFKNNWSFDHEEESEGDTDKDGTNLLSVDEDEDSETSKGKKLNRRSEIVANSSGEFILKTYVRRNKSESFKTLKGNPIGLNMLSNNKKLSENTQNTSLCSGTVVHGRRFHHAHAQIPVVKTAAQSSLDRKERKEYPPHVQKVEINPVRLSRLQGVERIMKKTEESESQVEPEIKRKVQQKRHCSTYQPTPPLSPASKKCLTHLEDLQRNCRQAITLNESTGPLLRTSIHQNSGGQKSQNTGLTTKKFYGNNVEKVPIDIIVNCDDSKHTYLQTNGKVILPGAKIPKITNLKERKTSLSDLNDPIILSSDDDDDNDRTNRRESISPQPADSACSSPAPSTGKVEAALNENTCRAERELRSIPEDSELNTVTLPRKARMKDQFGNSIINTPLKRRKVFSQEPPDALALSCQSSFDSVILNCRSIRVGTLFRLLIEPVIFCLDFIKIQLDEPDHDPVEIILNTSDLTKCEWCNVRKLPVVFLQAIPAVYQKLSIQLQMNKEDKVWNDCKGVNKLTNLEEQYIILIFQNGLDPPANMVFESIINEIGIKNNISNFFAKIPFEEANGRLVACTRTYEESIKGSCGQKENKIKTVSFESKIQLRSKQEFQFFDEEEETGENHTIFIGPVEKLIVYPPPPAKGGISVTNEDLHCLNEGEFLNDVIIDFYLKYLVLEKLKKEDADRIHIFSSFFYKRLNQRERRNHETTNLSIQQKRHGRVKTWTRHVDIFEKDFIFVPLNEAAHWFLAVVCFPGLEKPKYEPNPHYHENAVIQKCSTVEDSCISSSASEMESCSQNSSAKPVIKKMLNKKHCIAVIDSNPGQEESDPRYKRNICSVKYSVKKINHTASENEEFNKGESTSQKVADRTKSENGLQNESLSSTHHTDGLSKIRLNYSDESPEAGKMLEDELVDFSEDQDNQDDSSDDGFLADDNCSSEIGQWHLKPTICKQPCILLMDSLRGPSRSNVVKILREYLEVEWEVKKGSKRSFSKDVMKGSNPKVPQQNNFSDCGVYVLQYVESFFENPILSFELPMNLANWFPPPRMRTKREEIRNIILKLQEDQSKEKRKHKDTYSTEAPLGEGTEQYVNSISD
# [5] = molecular target: T4, Sentrin-specific protease 8 (Homo sapiens, UniProt Q96LD8); assay type: functional;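 note: luminescence read-out of SENP8 inhibition, dose-response confirmation following an ultra-high-throughput screen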
# T4 sequence (Q96LD8 whole entry): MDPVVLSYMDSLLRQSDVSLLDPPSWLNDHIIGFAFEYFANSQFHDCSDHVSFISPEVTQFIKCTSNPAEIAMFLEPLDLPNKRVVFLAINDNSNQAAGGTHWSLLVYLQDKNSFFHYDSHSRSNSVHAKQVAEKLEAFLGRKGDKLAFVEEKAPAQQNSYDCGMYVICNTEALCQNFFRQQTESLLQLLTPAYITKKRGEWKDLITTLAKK
# HeLa = test: ATP-based viability loss in HeLa cells – cell-based, CellTiter-Glo luminescence, cherry-pick samples, cytotoxicity control for MITF activator project, dose response (AID 540259); assay type: functional; settings: Homo sapiens
# Beta-galactosidase = Beta-galactosidase (Escherichia coli, UniProt Q8VNN2); test: PubChem AID 485352; assay type: functional
# [6] = molecular target: Type-1 angiotensin II receptor (Homo sapiens, UniProt P30556); test: antagonism of angiotensin II type 1 receptor – cell-based, uHTS hits, selectivity assay for APJ receptor antagonist project, dose response (AID 463214); assay type: functional;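 note: antagonist potency against angiotensin II stimulated AT1 response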
# Genome polyprotein = Genome polyprotein (dengue virus type 2, UniProt P29990); test: flavivirus cap methylation enzyme inhibition – biochemical, confirmation dose response, primary screen (AID 588689); assay type: functional
# Cysteine protease ATG4B = Cysteine protease ATG4B (Homo sapiens, UniProt Q9Y4P1); assay type: functional;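 note: Fluorescence-based dose-response confirmation assay measuring inhibition of ATG4B activity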
# Phospholipase A2 = Phospholipase A2 (Homo sapiens, UniProt P04054); assay type: functional;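 note: confirmatory dose-response counterscreen on phospholipase A2, testing hits that came from an ultra-high-throughput screen for ATG4B inhibitors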
# [7] = molecular target: T5, Heat shock factor protein 1 (Mus musculus, UniProt P38532); test: decrease of HSF1-responsive luciferase luminescence – cell-based, NIH3T3, dose retest, confirmation (AID 2382); assay type: functional;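 note: NIH3T3 fibroblasts with HSF1-driven luciferase reporter stressed by proteasome inhibitor MG132; luminescence from HSF1-driven luciferase expression after 8 hours of MG132 stress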
# T5 sequence (P38532 whole entry): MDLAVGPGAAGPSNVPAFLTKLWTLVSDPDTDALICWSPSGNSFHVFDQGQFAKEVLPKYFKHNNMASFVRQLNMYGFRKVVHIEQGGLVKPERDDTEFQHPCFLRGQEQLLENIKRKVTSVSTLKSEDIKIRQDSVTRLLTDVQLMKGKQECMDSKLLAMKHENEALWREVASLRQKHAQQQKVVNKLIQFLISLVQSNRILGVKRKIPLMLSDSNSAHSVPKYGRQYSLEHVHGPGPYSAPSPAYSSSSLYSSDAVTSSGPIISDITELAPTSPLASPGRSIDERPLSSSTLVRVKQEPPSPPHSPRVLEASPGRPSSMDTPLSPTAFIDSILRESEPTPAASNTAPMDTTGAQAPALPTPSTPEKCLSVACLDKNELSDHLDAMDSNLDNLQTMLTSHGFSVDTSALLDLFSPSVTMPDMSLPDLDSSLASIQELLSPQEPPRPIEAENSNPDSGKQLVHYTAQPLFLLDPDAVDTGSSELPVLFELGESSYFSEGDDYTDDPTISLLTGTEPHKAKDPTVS
# [8] = molecular target: Voltage-dependent T-type calcium channel subunit alpha-1H (Homo sapiens, UniProt O95180); assay type: functional;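 note: channel activity triggered by adding a high calcium stimulation buffer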
# [9] = Luminescence Cell-Based Dose Confirmation HTS to Identify Activators of 5'UTR Stem-Loop Driven Alpha-Synuclein mRNA Translation in H4 Neuroglioblastoma Cells. [Related pubchem assays: 1829 (Project Summary), 1814 (Primary HTS)]; assay type: functional
# [10] = Luminescence Cell-Based Dose Response HTS to Identify Activators of Luciferase Translation or Activity in H4 […] Cells. [Related pubchem assays: 1829 (Project Summary), 1814 (Primary HTS)]; assay type: functional
# cells [11] = assay type: functional, cell-based
# H4 = test: Luminescence Cell-Based Dose Response HTS to Identify Activators of 5'UTR Stem-Loop Driven Prion Protein mRNA Translation in H4 Neuroglioblastoma Cells. [Related pubchem assays: 1829 (Project Summary), 1814 (Primary HTS)]; assay type: functional; settings: Homo sapiens
# cells [12] = assay type: functional, cell-based; remark: listed apart in the source
# HEK293 = test: cells; assay type: functional, cell-based; settings: Homo sapiens
# [13] = molecular target: T6, Nuclear receptor subfamily 0 group B member 1 (Homo sapiens, UniProt P51843); test: Luminescence-based cell-based high throughput dose response assay for inhibitors of the orphan nuclear receptor subfamily 0, group B, member 1 (DAX1; NR0B1). [Related pubchem assays (depositor defined):AID504766, AID504790]; assay type: functional
# T6 sequence (P51843 whole entry): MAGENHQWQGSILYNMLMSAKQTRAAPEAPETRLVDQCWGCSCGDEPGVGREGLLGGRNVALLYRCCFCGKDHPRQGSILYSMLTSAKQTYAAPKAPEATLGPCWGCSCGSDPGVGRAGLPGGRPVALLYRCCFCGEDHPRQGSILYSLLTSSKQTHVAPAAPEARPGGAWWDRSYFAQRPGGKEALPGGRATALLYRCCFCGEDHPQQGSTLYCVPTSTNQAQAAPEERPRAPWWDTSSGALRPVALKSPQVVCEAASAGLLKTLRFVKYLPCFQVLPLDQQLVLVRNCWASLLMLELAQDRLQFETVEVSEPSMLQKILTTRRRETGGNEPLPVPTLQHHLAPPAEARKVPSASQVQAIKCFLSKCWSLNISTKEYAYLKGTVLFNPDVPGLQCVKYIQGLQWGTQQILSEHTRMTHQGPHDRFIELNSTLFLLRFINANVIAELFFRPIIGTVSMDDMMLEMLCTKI
# [14] = molecular target: T7, Oxysterols receptor LXR-beta (Homo sapiens, UniProt P55055); assay type: functional, cell-based;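 note: agonist activity at LXR measured by a cell-based luminescence readout across a dose range, run as a counterscreen for daf-12 agonists; HEK293 cells with Gal4-LXR fusion and GAL4-driven luciferase reporter; potency for activation of Gal4-LXR reporter so compounds are agonists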
# T7 sequence (P55055 whole entry): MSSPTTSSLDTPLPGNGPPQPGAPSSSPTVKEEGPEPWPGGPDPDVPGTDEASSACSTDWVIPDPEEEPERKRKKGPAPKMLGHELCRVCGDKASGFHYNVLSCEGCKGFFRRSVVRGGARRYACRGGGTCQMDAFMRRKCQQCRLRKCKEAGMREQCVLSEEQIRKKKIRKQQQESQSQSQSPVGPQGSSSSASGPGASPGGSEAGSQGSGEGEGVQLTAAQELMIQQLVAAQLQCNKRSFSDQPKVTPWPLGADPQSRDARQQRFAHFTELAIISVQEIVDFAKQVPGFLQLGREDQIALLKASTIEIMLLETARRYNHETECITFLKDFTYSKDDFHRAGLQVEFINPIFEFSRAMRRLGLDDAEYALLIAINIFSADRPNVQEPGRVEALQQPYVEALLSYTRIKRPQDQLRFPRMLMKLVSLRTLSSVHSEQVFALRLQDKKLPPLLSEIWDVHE
# Vero = test: viability of Vero cells under compound – cytotoxicity control for flavivirus capping enzyme inhibitors (AID 588742); assay type: functional; settings: Chlorocebus sabaeus
# Sequence of Beta-2 adrenergic receptor (P07550 whole entry): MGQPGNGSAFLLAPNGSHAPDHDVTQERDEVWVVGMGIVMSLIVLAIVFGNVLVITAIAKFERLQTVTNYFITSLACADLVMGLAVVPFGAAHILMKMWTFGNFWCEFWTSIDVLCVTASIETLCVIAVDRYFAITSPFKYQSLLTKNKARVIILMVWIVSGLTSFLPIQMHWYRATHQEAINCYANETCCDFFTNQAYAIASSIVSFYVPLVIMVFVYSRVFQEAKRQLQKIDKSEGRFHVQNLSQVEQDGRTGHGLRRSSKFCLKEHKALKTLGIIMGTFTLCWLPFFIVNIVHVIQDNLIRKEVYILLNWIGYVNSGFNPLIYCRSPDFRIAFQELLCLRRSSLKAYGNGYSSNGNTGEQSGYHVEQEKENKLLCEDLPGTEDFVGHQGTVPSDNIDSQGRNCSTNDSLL
# Sequence of Cysteine protease ATG4B (Q9Y4P1 whole entry): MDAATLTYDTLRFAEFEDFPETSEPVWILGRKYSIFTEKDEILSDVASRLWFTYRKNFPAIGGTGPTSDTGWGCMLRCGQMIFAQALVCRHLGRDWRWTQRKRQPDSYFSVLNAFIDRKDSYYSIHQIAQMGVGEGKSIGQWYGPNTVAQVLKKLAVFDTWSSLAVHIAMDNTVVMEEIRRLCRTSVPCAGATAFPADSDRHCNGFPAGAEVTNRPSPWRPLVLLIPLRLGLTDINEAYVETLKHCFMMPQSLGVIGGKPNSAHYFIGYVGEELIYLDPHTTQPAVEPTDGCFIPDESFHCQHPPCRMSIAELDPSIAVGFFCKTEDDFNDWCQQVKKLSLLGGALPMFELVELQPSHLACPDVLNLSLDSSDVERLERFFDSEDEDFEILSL
# Sequence of Genome polyprotein (P29990 2492-3391 limits assumed): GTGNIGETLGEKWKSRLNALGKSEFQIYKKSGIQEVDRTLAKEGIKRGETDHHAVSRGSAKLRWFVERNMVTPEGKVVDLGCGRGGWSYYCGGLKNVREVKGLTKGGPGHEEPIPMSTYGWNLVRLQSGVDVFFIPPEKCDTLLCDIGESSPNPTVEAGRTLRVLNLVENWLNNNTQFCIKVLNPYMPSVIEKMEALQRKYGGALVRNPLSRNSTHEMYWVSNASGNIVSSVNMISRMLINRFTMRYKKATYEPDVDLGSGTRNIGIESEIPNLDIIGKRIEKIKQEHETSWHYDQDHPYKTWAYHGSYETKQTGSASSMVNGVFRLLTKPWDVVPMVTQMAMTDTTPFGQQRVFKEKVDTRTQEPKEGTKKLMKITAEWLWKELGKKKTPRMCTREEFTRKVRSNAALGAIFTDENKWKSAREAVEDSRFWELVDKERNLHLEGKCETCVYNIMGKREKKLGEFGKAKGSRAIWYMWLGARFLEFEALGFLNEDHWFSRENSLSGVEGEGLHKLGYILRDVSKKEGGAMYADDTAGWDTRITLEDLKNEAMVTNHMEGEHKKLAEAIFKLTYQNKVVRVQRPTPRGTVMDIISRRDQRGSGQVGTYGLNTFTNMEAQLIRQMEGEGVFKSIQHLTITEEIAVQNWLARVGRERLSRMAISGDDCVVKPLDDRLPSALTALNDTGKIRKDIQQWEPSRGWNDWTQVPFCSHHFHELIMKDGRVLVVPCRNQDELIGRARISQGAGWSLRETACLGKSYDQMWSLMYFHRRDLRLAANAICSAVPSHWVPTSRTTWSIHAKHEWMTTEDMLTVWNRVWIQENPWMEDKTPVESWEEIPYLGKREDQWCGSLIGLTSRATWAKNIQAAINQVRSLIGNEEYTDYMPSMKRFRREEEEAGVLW
# Sequence of Type-1 angiotensin II receptor (P30556 whole entry): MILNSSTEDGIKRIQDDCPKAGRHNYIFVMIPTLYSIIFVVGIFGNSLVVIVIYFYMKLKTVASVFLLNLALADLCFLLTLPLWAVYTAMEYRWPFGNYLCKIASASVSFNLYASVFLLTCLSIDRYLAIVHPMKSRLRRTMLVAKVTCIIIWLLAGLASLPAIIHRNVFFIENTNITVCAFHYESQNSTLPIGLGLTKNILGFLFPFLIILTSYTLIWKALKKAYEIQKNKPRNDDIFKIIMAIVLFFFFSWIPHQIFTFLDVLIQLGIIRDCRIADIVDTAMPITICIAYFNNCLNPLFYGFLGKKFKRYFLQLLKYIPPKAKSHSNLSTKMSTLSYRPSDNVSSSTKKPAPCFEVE
# Sequence of Beta-galactosidase (Q8VNN2 whole entry): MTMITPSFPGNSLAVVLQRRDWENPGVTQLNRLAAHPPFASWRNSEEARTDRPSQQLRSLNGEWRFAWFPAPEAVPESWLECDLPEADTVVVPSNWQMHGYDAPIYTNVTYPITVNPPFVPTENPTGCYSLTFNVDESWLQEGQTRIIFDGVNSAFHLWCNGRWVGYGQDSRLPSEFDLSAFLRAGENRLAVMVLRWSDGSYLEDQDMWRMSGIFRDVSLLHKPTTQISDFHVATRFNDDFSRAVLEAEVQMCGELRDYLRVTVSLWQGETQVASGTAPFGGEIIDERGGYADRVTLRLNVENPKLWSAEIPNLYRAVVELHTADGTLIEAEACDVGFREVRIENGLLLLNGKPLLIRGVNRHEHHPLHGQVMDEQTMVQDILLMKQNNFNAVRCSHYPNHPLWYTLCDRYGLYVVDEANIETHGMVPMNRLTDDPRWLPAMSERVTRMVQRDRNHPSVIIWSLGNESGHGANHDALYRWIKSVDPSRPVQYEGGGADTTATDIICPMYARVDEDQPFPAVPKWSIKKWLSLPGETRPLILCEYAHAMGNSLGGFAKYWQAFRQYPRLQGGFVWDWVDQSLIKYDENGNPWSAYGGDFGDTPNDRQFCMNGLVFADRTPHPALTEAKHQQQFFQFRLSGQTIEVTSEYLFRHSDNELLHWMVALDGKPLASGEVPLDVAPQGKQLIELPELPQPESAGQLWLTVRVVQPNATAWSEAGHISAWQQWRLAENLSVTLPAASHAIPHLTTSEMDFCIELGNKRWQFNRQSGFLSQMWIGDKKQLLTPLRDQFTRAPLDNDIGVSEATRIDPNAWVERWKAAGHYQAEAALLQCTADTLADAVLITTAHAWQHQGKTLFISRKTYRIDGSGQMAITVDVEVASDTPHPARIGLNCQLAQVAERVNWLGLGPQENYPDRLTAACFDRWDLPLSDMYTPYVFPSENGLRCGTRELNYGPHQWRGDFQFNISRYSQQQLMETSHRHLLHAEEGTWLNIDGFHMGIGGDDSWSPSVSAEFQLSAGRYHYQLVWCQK
# Sequence of Phospholipase A2 (P04054 whole entry): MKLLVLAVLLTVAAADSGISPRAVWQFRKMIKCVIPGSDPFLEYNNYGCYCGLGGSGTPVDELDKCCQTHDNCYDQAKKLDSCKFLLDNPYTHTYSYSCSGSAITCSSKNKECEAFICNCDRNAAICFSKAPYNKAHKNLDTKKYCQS
structure (smiles),measurement,setting,value
CN(CC(=O)N1CCN(c2ncccn2)CC1)S(=O)(=O)c1ccc(Cl)cc1,EC50,[1],0.117 µM (active)
COc1cccc(NC(=O)c2csc3c2CCCC3)c1,CC50,[2],32.5 µM (active)
same,IC50,Caspase-3,19.2 µM (active)
same,IC50,[3],5.17 µM (active)
same,IC50,[4],15.5 µM (active)
same,IC50,[5],18.9 µM (active)
same,AC50,HeLa,49.7 µM (active)
Cc1cc(C(=O)OCC(=O)c2cccc([N+](=O)[O-])c2)c2ccccc2n1,EC50,Beta-galactosidase,> 40 µM (inactive)
same,IC50,[6],17.4 µM (active)
O=C1Nc2ccc(F)cc2C12Nc1ccccc1-c1nnc(SCc3ccccc3Cl)nc1O2 (stereo unspecified),EC50,Beta-galactosidase,> 40 µM (inactive)
same,IC50,[6],25.5 µM (not active)
same,IC50,Genome polyprotein,> 100 µM (active)
CCOC(=O)C1CCCN(C(=O)c2ccc3c(=O)n(Cc4ccccc4OC)c(=S)[nH]c3c2)C1 (stereo unspecified),IC50,Cysteine protease ATG4B,19.6 µM (active)
same,IC50,Phospholipase A2,9.33 µM (active)
CC(=O)Nc1ccc(-c2cn3c(n2)SCC3)cc1,EC50,[7],> 195 µM (not active)
same,EC50,[1],10.9 µM (inactive)
Cc1cccc(C)c1OCC(=O)Nc1cccc(NC(=O)c2ccco2)c1,EC50,[8],6.78 µM (active)
same,IC50,Cysteine protease ATG4B,15.9 µM (active)
same,IC50,Phospholipase A2,8.37 µM (active)
O=C(Nc1ncccc1O)c1ccc(C(=O)c2ccccc2)cc1,EC50,[9],11.4 µM (active)
same,EC50,[10],16.4 µM (active)
same,EC50,cells [11],72.7 µM (active)
same,EC50,H4,23 µM (active)
same,EC50,cells [12],48.2 µM (active)
same,IC50,HEK293,1.04 µM (active)
same,IC50,[13],> 67.6 µM (inactive)
same,EC50,[14],> 67.5 µM (inactive)
COC(=O)COc1ccc(C(C2C(=O)CC(C)(C)CC2=O)C2C(=O)CC(C)(C)CC2=O)cc1,CC50,Vero,> 40 µM (active)
same,IC50,Genome polyprotein,48 µM (active)
Cc1ccc2[nH]c(/C(C#N)=C/c3ccccc3C(=O)O)nc2c1,IC50,HEK293,> 67.5 µM (inactive)
same,IC50,[13],> 67.5 µM (inactive)
